# Positions count from the first letter of the chain named. Values joined by “and” are separate entries in the source; they are usually repeats but may differ in a detail not shown here. Equal entries are not always repeated. Where two headings read alike, the source gives them in different places.
# What was measured:
# Type in all cases: cell-based
# hTA1 C96S = target: T1, hTA1 C96S (Homo sapiens, UniProt Q96RJ0, C96S); experiment: GloSensor cAMP accumulation assay, C96S mutant; conditions: log[Compound]
# T1 construct: expressed in transfected cells; host or cells: HEK293T
# T1 sequence (Q96RJ0 1-339 C96S): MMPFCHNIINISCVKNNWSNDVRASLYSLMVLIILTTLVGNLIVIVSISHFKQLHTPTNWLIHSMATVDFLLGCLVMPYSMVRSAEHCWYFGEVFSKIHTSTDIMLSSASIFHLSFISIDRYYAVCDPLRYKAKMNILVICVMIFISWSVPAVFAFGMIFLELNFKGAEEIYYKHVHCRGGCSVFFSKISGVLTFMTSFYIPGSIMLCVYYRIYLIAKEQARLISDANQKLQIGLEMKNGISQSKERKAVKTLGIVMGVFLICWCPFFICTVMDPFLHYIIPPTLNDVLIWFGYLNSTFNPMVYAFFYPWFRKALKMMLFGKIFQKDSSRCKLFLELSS
# hTA1 C88S = target: T2, hTA1 C88S (Homo sapiens, UniProt Q96RJ0, C88S); experiment: GloSensor cAMP accumulation assay, C88S mutant; conditions: C88S
# T2 construct: expressed in transfected cells; host or cells: HEK293T
# T2 sequence (Q96RJ0 1-339 C88S): T1 sequence (Q96RJ0 1-339 C96S) with C88S, S96C
# hTA1 T271N = target: T3, hTA1 T271N (Homo sapiens, UniProt Q96RJ0, T271N); experiment: GloSensor cAMP accumulation assay, T271N mutant; conditions: for ΔpEC50 values (each mutant value - WT average), Mean: T271N mutant minus WT average; for Emax values, Mean: β-PEA = 100
# T3 construct: expressed in transfected cells; host or cells: HEK293T
# T3 sequence (Q96RJ0 1-339 T271N): T1 sequence (Q96RJ0 1-339 C96S) with S96C, T271N
# hTA1 I290N = target: T4, hTA1 I290N (Homo sapiens, UniProt Q96RJ0, I290N); experiment: GloSensor cAMP accumulation assay, I290N mutant; conditions: for cAMP accumulation response, single replicate values (source data, Supplementary Figure 5): hTA1 I290N (N=2), log[Compound], M = -5;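 as to all read-outs here: cells transiently co-expressing hTA1 and the GloSensor cAMP biosensor, luminescence read 30 min after compound addition at room temperature, efficacy scaled to the maximal β-PEA response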
# T4 construct: expressed in transfected cells; host or cells: HEK293T
# T4 sequence (Q96RJ0 1-339 I290N): T1 sequence (Q96RJ0 1-339 C96S) with S96C, I290N
# hTA1 F195T = target: T5, hTA1 F195T (Homo sapiens, UniProt Q96RJ0, F195T); experiment: GloSensor cAMP accumulation assay, F195T mutant; conditions: for ΔpEC50 values (each mutant value - WT average), Mean: F195T mutant minus WT average;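 as to all read-outs here: cells transiently co-expressing HA-FLAG-tagged hTA1 and the GloSensor cAMP biosensor, luminescence read 30 min after agonist addition at room temperature, concentration-response fitted by nonlinear regression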
# T5 construct: expressed in transfected cells; host or cells: HEK293T
# T5 sequence (Q96RJ0 1-339 F195T): T1 sequence (Q96RJ0 1-339 C96S) with S96C, F195T
# [1] = C96S, M = -5, single replicates (N=2)
# [2] = C96S, M = -5.522, single replicates (N=2)
# [3] = C96S, M = -6, single replicates (N=2)
# [4] = C96S, M = -6.522, single replicates (N=2)
# [5] = C96S, M = -7, single replicates (N=2)
# [6] = C96S, M = -7.522, single replicates (N=2)
# [7] = C96S, M = -8, single replicates (N=2)
# [8] = C96S, M = -8.522, single replicates (N=2)
# [9] = C96S, M = -9, single replicates (N=2)
# [10] = C96S, M = -9.522, single replicates (N=2)
# [11] = C96S, M = -10, single replicates (N=2)
# [12] = C96S, M = -10.522, single replicates (N=2)
# [13] = C96S, M = -11, single replicates (N=2)
# [14] = C96S, M = -11.522, single replicates (N=2)
# [15] = M = -11.522, single replicates, mutant block above C178S
# [16] = M = -12, single replicates, mutant block above C178S
# [17] = M = -12.522, single replicates, mutant block above C178S
# [18] = T271N mutant, Figure 5B, each row one independent experiment (3 replicates)
# [19] = hTA1 I290N mutant, β-PEA set to 100, each grid row a separate experiment, 3 replicates
# [20] = F195T mutant, Figure 5B, β-PEA = 100, each row one independent experiment (3 replicates)
compound,measurement,setting,value
CCc1[nH]nc(C(=O)Nc2ccc([C@H]3CNCCO3)cc2)c1C [ralmitaront],Normalized Luminescence Counts,hTA1 C96S; [1],1.4045 and -2.55 and -5.186 and -2.698 and 26.3511 and -6.571
same,Normalized Luminescence Counts,hTA1 C96S; [2],-3.209 and -4.527 and -5.845 and -4.6346 and 8.922 and -0.7614
same,Normalized Luminescence Counts,hTA1 C96S; [3],-3.209 and -2.55 and -5.186 and 8.922 and 1.175 and 18.6047
same,Normalized Luminescence Counts,hTA1 C96S; [4],-5.186 (2×) and -3.209 and -6.571 and -12.381 and 39.9073
same,Normalized Luminescence Counts,hTA1 C96S; [5],-5.845 and -1.232 and -3.868 and 3.112 and -12.381 and 8.922
same,Normalized Luminescence Counts,hTA1 C96S; [6],-5.845 and -2.55 and -6.504 and 10.8582 (2×) and -6.571
same,Normalized Luminescence Counts,hTA1 C96S; [7],-1.232 and -0.5726 and -2.55 and 20.5413 and -0.7614 and 37.9707
same,Normalized Luminescence Counts,hTA1 C96S; [8],-1.891 (2×) and -3.209 and -0.7614 (2×) and 14.7315
same,Normalized Luminescence Counts,hTA1 C96S; [9],-3.209 and -0.5726 and -2.55 and 6.985 and 8.922 and 5.048
same,Normalized Luminescence Counts,hTA1 C96S; [10],-3.209 and -3.868 and -1.232 and 24.4145 and 3.112 and -8.508
same,Normalized Luminescence Counts,hTA1 C96S; [11],-3.868 and -0.5726 and -1.232 and -0.7614 and -16.2542 (2×)
same,Normalized Luminescence Counts,hTA1 C96S; [12],-2.55 (2×) and -1.232 and -6.571 and -22.0641 and -10.4444
same,Normalized Luminescence Counts,hTA1 C96S; [13],0.7455 and 2.064 and -1.232 and 20.5413 and -12.381 and -10.4444
same,Normalized Luminescence Counts,hTA1 C96S; [14],0.7455 and 3.382 and 1.4045 and 16.6681
same,Normalized Luminescence Counts,hTA1 C96S; [15],-0.2239 and -0.1784 and -0.4742 and 3.153 and 1.07 and 2.833
same,Normalized Luminescence Counts,hTA1 C96S; [16],-0.6336 and -0.2466 and -0.7474 and 2.192 and 1.657 and 3.26
same,Normalized Luminescence Counts,hTA1 C96S; [17],-0.7701 (2×) and -0.4515 and 1.764 and 0.7492 and 1.497
same,Emax values,hTA1 C88S; Mean of fit per experiment,92.8994 and 62.9388
same,Emax,"hTA1 C88S; n=2, read-out: Span ± SEM (Emax normalized to β-PEA)",77.9 ± 15%
same,Emax,"hTA1 C88S; relative to β-PEA, read-out: Emax",77.9%
same,"ΔpEC50 values (each mutant value - WT average), Mean",hTA1 T271N; Figure 5B,0.04727 and -0.1115
same,"Emax values, Mean",hTA1 T271N; [18],121.192 and 53.6921
same,Emax,"hTA1 T271N; T271N, n=2, read-out: Span ± SEM (Emax normalized to β-PEA)",87.4 ± 33.8%
same,Emax,"hTA1 T271N; T271N, relative to β-PEA, read-out: Emax",87.4%
same,Emax,"hTA1 I290N; I290N, n=2, read-out: Span ± SEM (Emax normalized to β-PEA)",43.6 ± 5.35%
same,"cAMP accumulation response, single replicate values (source data, Supplementary Figure 5)",hTA1 I290N,44.9736 and 36.855 and 39.1073 and 50.4588
same,"Emax values, Mean",hTA1 I290N; [19],38.2871
same,Emax,"hTA1 I290N; hTA1 I290N mutant, β-PEA set to 100, each grid row a separate experiment, 3 replicates, read-out: Emax values (Mean)",49%
same,"ΔpEC50 values (each mutant value - WT average), Mean",hTA1 F195T; Figure 5B,0.04071 and 0.07112
same,"Emax values, Mean",hTA1 F195T; [20],86.6537
same,Emax,"hTA1 F195T; F195T mutant, Figure 5B, β-PEA = 100, each row one independent experiment (3 replicates), read-out: Emax values, Mean",67.7%
same,Emax,"hTA1 F195T; F195T, n=2, read-out: Span ± SEM (Emax normalized to β-PEA)",77.2 ± 9.48%
"NCCc1ccc(Oc2ccc(O)cc2)c(I)c1 [T1AM, 3-iodothyronamine]",Normalized Luminescence Counts,hTA1 C96S; [1],-4.527 and 0.08646 and -0.5726 and 12.7948 and 5.048 and 3.112
same,Normalized Luminescence Counts,hTA1 C96S; [2],-1.232 and -3.209 (2×) and 24.4145 and 1.175 and -2.698
same,Normalized Luminescence Counts,hTA1 C96S; [3],-1.891 and -5.845 and -6.504 and 30.2243 and -2.698 and -0.7614
same,Normalized Luminescence Counts,hTA1 C96S; [4],-5.186 (2×) and -5.845 and -10.4444 and -0.7614 and -2.698
same,Normalized Luminescence Counts,hTA1 C96S; [5],-3.209 and -6.504 and -1.891 and -14.3176 and -8.508 and -10.4444
same,Normalized Luminescence Counts,hTA1 C96S; [6],-1.891 and -5.186 (2×) and -4.6346 and 3.112 and -6.571
same,Normalized Luminescence Counts,hTA1 C96S; [7],0.08646 and -3.868 and -1.232 and 14.7315 and 18.6047 (2×)
same,Normalized Luminescence Counts,hTA1 C96S; [8],-1.891 and -1.232 (2×) and 14.7315 (2×) and 8.922
same,Normalized Luminescence Counts,hTA1 C96S; [9],-1.232 and -1.891 (2×) and 30.2243 and 37.9707 and 3.112
same,Normalized Luminescence Counts,hTA1 C96S; [10],-3.209 and -1.891 and -1.232 and 16.6681 and 5.048 and 20.5413
same,Normalized Luminescence Counts,hTA1 C96S; [11],2.064 and -0.5726 and 0.7455 and -0.7614 and -4.6346 and -6.571
same,Normalized Luminescence Counts,hTA1 C96S; [12],-1.891 and -3.868 and 0.08646 and 1.175 and -6.571 and -4.6346
same,Normalized Luminescence Counts,hTA1 C96S; [13],1.4045 and 0.7455 (2×) and 34.0975 (2×) and 14.7315
same,Normalized Luminescence Counts,hTA1 C96S; [14],1.4045 (2×) and -0.5726 and 24.4145
same,Normalized Luminescence Counts,hTA1 C96S; [15],-0.4742 (2×) and -0.6563 and 0.6424 and -0.05214 and -0.3727
same,Normalized Luminescence Counts,hTA1 C96S; [16],-0.08731 (2×) and -0.5653 and 0.1081 and 0.001279 (2×)
same,Normalized Luminescence Counts,hTA1 C96S; [17],-0.2011 and 0.5045 and -0.6791 and -0.1056 and 0.9095 and -0.05214
same,Emax values,hTA1 C88S; Mean of fit per experiment,51.5909 and 77.2309
same,pEC50 values,hTA1 C88S; Mean of fit per experiment,6.196 and 6.127
same,Span ± SEM (Emax normalized to β-PEA),hTA1 C88S; n=2,64.41
same,pEC50 ± SEM,hTA1 C88S; n=2,6.16 ± 0.04
same,EC50,"hTA1 C88S; n=2, read-out: EC50",690 nM
same,"ΔpEC50 values (each mutant value - WT average), Mean",hTA1 T271N; Figure 5B,0.1858 and 0.05902
same,"pEC50 values, Mean",hTA1 T271N; [18],6.315 and 6.188
same,"Emax values, Mean",hTA1 T271N; [18],147.043 and 92.5588
same,pEC50 ± SEM,"hTA1 T271N; T271N, n=2",6.25 ± 0.03
same,EC50,"hTA1 T271N; T271N, n=2, read-out: EC50",560 nM
same,Emax,"hTA1 T271N; T271N, relative to β-PEA",119.8%
same,increase in potency vs wild type,hTA1 I290N; I290N,about 5 fold
same,Span ± SEM (Emax normalized to β-PEA),"hTA1 I290N; I290N, n=2",76.97 ± 5.53
same,pEC50 ± SEM,"hTA1 I290N; I290N, n=2",6.86 ± 0.07
same,EC50,"hTA1 I290N; I290N, n=2, read-out: EC50",139 nM
same,"cAMP accumulation response, single replicate values (source data, Supplementary Figure 5)",hTA1 I290N,86.8237 and 86.3523 and 77.8671 and 98.8421
same,"ΔpEC50 values (each mutant value - WT average), Mean",hTA1 I290N; hTA1 I290N mutant minus WT average,0.6614 and 0.7922
same,"pEC50 values, Mean","hTA1 I290N; hTA1 I290N mutant, Figure 3B source data, each grid row a separate experiment, 3 replicates",6.791 and 6.921
same,"Emax values, Mean",hTA1 I290N; [19],82.4992 and 71.4451
same,"ΔpEC50 values (each mutant value - WT average), Mean",hTA1 F195T; Figure 5B,-0.7125 and -0.7788
same,"pEC50 values, Mean","hTA1 F195T; F195T mutant, Figure 5B, each row one independent experiment (3 replicates)",5.417 and 5.35
same,"Emax values, Mean",hTA1 F195T; [20],72.2975 and 58.7221
same,Span ± SEM (Emax normalized to β-PEA),"hTA1 F195T; F195T, n=2",65.51 ± 6.79
same,pEC50 ± SEM,"hTA1 F195T; F195T, n=2",6.67 ± 1.32
same,EC50,"hTA1 F195T; F195T, n=2, read-out: EC50",213 nM

# Reference: article PMC10762035, “Molecular basis of human trace amine-associated receptor 1 activation” (Nature Communications, 2024)
